Measured values: patent US11274095B2, “Modulators of methyl modifying enzymes, compositions and uses thereof” (Constellation Pharmaceuticals, Inc., priority 2018, dated 2022)

How the values were obtained:
PRC2 containing wt EZH2 [1] = molecular target: T1, PRC2 containing wt EZH2 (Homo sapiens (Human), UniProt Q15910); test: EZH2 biochemical assay (IC50), 3H-SAM incorporation into biotinylated H3 peptide; conditions: 30 pM PRC2 with wt EZH2, 3-5 h pre-incubation
Experimental: EZH2 biochemical assay (IC50): Compound potencies were assessed through incorporation of ^3H-SAM into a biotinylated H3 peptide. Specifically, 30 pM PRC2 containing wt EZH2 (pentameric complex prepared in-house) was pre-incubated with 450 nM SAM, 450 nM ^3H-SAM, 2 μM H3K27me3 activating peptide (H2N-RKQLATKAAR(Kme3)SAPATGGVKKP-amide) and compounds (as 10 point duplicate dose response titrations in DMSO, final assay 0.8% DMSO (v/v)) for 3-5 h in 50 mM Tris (pH 8.5), 1 mM DTT, 0.07 mM Brij-35, 0.1% BSA, and 0.8% DMSO in a total volume of 12.5 μl. Reaction was initiated with biotinylated H3 substrate peptide (H2N-RKQLATKAAR(Kmel)SAPATGGVKKP-NTPEGBiot) as a 2 μM stock in 12.5 μl of buffer and allowed to react at room temperature for 18-22 h. Quenching was accomplished by addition of 20 μl of STOP solution (50 mM Tris (pH 8.5), 200 mM EDTA, 2 mM SAH). 35 μl of the quenched solution was transferred to streptavidin coated FlashPlates (PerkinElmer), incubated 1-2 h, washed, and read in a TopCount Reader (PerkinElmer). IC50s were calculated in Genedata Screener using non-linear least square four parameter fits, where the four parameters were IC50, Hill slope, pre-transitional baseline (0% INH), and post-transitional baseline (100% INH).

Karpas-422 cell lines = test: Karpas-422 viability assay (Cell Titer-Glo, Day 8); type: cell-based; conditions: Homo sapiens, KARPAS-422, 192 h, Cell Titer-Glo on Day 8
Experimental: Karpas-422 cell lines were obtained from DSMZ (Braunschweig, Germany) and were grown in RPMI-1640 media. All media contained 10% fetal bovine serum (FBS) and 1% penicillin/streptomycin (Invitrogen). 20K cells per well were plated onto 96 well compound coated plates. Cells were split and seeded at original plating density (based on the DMSO well counts) every 4 days into plates containing fresh EZH2 inhibitors. Relative cell numbers were assessed by Cell Titer-Glo luminescent cell viability assay (Promega) on Day 8. GraphPad Prism 5 was used for curve fitting and GI50 values were reported.

[2] = Cellular permeability in MDCK assay; type: in vitro ADME; conditions: dog, pH 7.4, MDCK II, with P-gp inhibitor GF120918 10 μM; for efflux ratio at 2.5 h, 2 μM: Papp(BA)/Papp(AB)
Experimental: Cell culture: MDCK II cells (obtained from Piet Borst at the Netherlands Cancer Institute) were seeded onto […] (PET) in 96-well BD insert systems at 2.5×10^5 cells/mL until to 4-7 days for confluent cell monolayer formation.
Experimental procedure: Test and reference compounds (nadolol, metoprolol and digoxin) were diluted with transport buffer (HBSS with 10mM Hepes, pH7.4) from stock solution to a concentration of 2 μM (<1% DMSO) and applied to the apical (A) or basolateral (B) side of the cell monolayer. Permeation of the test compounds from A to B direction or B to A direction was determined in duplicate with P-gp inhibitor (GF120918, 10 μM). Digoxin was tested at 10 μM from A to B direction or B to A direction with/without P-gp inhibitor (GF120918, 10 μM) as well, while nadolol and metoprolol were tested at 2 μM in A to B direction without P-gp inhibitor (GF120918, 10 μM) in duplicate. The plate was incubated for 2.5 hours in CO2 incubator at 37±1° C., with 5% CO2 at saturated humidity without shaking. In addition, the efflux ratio of each compound was also determined. Test and reference compounds were quantified by LC/MS/MS analysis based on the peak area ratio of analyte/IS. After transport assay, Lucifer yellow rejection assay are applied to determine the cell monolayer integrity. Buffers are removed from both apical and basolateral chambers, followed by the addition of 75 μL of 100 μM lucifer yellow in transport buffer and 250 μL transport buffer in apical and basolateral chambers, respectively. The plate is incubated for 30 minutes at 37° C. with 5% CO2 and 95% relative humidity without shaking. After 30 minutes incubation, 20 μL of lucifer yellow samples are taken from the apical sides, followed by the addition of 60 μL of Transport Buffer. And then 80 μL of lucifer yellow samples are taken from the basolateral sides. The relative fluorescence unit (RFU) of lucifer yellow is measured at 425/528 nm (excitation/emission) with a Molecular Device M2e plate reader.
Data analysis: The apparent permeability coefficient Papp (cm/s) was calculated using the equation: Papp=(dCr/dt)×Vr/(A×C0) Where dCr/dt is the cumulative concentration of compound in the receiver chamber as a function of time (μM/s); Vr is the solution volume in the receiver chamber (0.075 mL on the apical side, 0.25 mL on the basolateral side); A is the surface area for the transport, i.e. 0.0804 cm2 for the area of the monolayer; C0 is the initial concentration in the donor chamber (μM).
The efflux ratio was calculated using the equation: Efflux Ratio=Papp(BA)/Papp(AB) Percent recovery was calculated using the equation: % Recovery=100×[(Vr×Cr)+(Vd×Cd)]/(Vd×C0) Where Vd is the volume in the donor chambers (0.075 mL on the apical side, 0.25 mL on the basolateral side); Cd and Cr are the final concentrations of transport compound in donor and receiver chambers, respectively.
Percent of lucifer yellow in basolateral well is calculated using the equation:
[formula] where RFUApical and RFUBasolateral are the relative fluorescence unit values of lucifer yellow in the apical and basolateral wells, respectively; VApical and VBasolateral are the volume of apical and basolateral wells (0.075 mL and 0.25 mL), respectively. Percent lucifer yellow should be less than 2.

PRC2 containing wt EZH2 [3] = molecular target: T1, PRC2 containing wt EZH2; test: EZH2 residence time assay (100-fold dilution of enzyme-inhibitor complex); type: biochemical; conditions: recovery of enzyme activity after 100-fold dilution; read-out: EZH2 residence time (converted)
Experimental: EZH2 residence time assay: Compound residence times were assessed by monitoring the recovery of enzyme activity following a 100-fold dilution of pre-formed enzyme-inhibitor complex (dilution reaction), and comparing it to the activity of an undiluted control with the same final concentrations of all reagents (control reaction). Enzyme activity was measured by incorporation of ^3H-SAM into a biotinylated H3 peptide. For the dilution reaction, 20 nM PRC2 containing wt EZH2 (pentameric complex prepared in-house) was pre-incubated with 1 μM activating peptide (H2N-RKQLATKAAR(Kme3)SAPATGGVKKP-amide) and compound at 600 times its Ki for 2 h in 40 μL of buffer (50 mM Tris pH 8.5, 4 mM DTT, 1 mM MgCl2, 0.07 mM Brij-35, and 0.1 mg/mL BSA), then diluted 100-fold and the reaction initiated by transferring 1.4 μL to a 138.6 μL volume of buffer containing 1 μM activating peptide, 5.05 μM substrate peptide (H2N-[…]-NTPEGbiot), 1.01 μM SAM, and 1.01 μM ^3H-SAM. […] Reactions were quenched at various time points spanning up to 10 hours, by transferring 8μL aliquots from the reaction vessel to a plate containing 8μL per well of STOP solution (50 mM Tris pH 8.5, 200 mM EDTA, 2 mM SAH). After the last time point, 12 μL of the quenched solutions were transferred to a streptavidin coated FlashPlate (PerkinElmer) containing 40 μL per well of STOP solution, incubated 1-8 h, washed, and read in a TopCount plate reader (PerkinElmer).
A custom script was used to fit control reaction progress data to a straight line and dilution reaction progress data:
[formula] Where y is the product formed, t is the reaction time, vi is the initial velocity, vs is the steady state velocity, and kobs is the rate constant for the transition from the initial velocity phase of the curve to the steady state velocity phase of the curve. In fitting the dilution reaction progress data, vs was constrained to the slope of the line fitted to the control reaction progress data. The fitted value of kobs was then transformed into residence time:
[formula] Where τ is residence time, Ki is the inhibition constant, [EI] is the calculated equilibrium concentration of enzyme-inhibitor complex, [E] is the calculated equilibrium concentration of free enzyme, and [I] is the calculated equilibrium concentration of free inhibitor.

H3K27me3 in Hela cells = test: H3K27me3 Alpha Hela Assay (AlphaLISA); type: cell-based; conditions: Homo sapiens, HeLa, 72 h
Experimental: H3K27me3 Alpha Hela Assay (AlphaLISA). Ten different doses of each test compound (in a series of 3-fold dilutions) were plated in duplicate 384-well tissue culture treated plates (Catalog #6007680; Perkin Elmer, Waltham, Mass.). Hela cells grown in culture were trypsinized and counted using a Countess® cell counter (Catalog #C10281; Life Technologies, Grand Island, N.Y.). Cell were diluted to 67,000 cells per mL in10% DMEM (Catalog #10569-010 Life Technologies, Grand Island, N.Y.) and 15 μL (1,000 cells) were plated into each well using the Biotek MicroFlo™ Select Dispenser (BioTek Instruments, Inc. Vermont, USA),) of the 384-well plate. Plates were incubated at 37° C./5% CO2 for 72 hrs. One of the duplicate plates was processed for HeLa assay and the other for viability. 5 μL of Cell-Histone Lysis buffer (1×) (Catalog #AL009F1 Perkin Elmer; Waltham, Mass.) per well was added to the plate processed for AlphaLISA and the plate was incubated at RT for 30 minutes on a plate shaker with low speed (Model# 4625-Q Thermo Scientific; Waltham, Mass.). Then, 10 μL per well Histone Extraction buffer (catalog #AL009F2; Perkin Elmer; Waltham, Mass.) was added and the plate further incubated at RT for 20 min on plate shaker with low speed. Next, 10 μL of 5× mix of anti-K27me3 acceptor beads plus Biotinylated anti-Histone H3 (C-ter) Antibody (diluted to 3 nM final) (Catalog #AL118 Perkin Elmer; Waltham, Mass.) was added in each well. Dilution of the acceptor beads and anti-Histone H3 was done in 1× Histone Detection buffer (Catalog #AL009F3 Perkin Elmer; Waltham, Mass.) which was produced by diluting the 10× stock provided. The plate was sealed with an aluminum plate sealer and incubated at 23° C. for 60 min. Next, 10 μL 5× solution of Streptavidin Donor beads were added (Catalog #6760002 Perkin Elmer; Waltham, Mass.) (20 μg/mL final in 1× Histone Detection Buffer), =plate was sealed with Aluminum plate sealer and incubated at 23° C. for 30 min. The plates were then read using an EnVision-Alpha Reader (model #2104 Perkin Elmer; Waltham, Mass.). […]

T1 sequence (Q15910 whole entry): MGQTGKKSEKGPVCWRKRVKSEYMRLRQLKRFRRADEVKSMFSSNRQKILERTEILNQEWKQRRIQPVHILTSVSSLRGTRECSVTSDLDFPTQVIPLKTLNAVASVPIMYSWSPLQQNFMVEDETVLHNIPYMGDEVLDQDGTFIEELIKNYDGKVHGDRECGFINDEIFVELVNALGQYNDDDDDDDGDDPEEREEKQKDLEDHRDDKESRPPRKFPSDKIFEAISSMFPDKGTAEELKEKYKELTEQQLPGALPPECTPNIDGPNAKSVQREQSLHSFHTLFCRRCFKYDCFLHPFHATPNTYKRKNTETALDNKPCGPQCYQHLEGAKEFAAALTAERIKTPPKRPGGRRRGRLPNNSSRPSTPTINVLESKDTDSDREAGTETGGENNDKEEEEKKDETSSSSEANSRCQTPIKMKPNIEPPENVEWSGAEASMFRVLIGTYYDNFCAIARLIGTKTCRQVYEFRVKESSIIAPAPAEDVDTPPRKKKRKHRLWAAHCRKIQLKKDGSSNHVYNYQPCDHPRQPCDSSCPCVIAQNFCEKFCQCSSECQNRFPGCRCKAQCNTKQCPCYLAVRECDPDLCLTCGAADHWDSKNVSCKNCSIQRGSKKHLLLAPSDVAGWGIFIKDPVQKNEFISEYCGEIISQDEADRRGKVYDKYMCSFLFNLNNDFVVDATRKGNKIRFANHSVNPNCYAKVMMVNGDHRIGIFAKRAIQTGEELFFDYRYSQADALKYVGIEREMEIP
T1 sequence (O75530 whole entry partner): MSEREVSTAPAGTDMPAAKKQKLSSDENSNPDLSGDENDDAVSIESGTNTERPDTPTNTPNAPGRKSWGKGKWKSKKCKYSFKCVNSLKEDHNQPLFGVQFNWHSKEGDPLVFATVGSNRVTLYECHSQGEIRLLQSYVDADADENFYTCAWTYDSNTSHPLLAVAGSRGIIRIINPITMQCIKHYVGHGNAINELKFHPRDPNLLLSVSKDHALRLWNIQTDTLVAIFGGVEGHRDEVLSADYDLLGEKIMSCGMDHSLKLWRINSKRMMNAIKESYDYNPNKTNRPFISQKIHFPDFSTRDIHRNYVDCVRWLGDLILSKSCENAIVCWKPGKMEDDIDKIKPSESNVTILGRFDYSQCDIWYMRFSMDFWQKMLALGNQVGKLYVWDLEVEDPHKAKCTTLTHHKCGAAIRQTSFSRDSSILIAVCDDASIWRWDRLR
T1 sequence (Q15022 whole entry partner): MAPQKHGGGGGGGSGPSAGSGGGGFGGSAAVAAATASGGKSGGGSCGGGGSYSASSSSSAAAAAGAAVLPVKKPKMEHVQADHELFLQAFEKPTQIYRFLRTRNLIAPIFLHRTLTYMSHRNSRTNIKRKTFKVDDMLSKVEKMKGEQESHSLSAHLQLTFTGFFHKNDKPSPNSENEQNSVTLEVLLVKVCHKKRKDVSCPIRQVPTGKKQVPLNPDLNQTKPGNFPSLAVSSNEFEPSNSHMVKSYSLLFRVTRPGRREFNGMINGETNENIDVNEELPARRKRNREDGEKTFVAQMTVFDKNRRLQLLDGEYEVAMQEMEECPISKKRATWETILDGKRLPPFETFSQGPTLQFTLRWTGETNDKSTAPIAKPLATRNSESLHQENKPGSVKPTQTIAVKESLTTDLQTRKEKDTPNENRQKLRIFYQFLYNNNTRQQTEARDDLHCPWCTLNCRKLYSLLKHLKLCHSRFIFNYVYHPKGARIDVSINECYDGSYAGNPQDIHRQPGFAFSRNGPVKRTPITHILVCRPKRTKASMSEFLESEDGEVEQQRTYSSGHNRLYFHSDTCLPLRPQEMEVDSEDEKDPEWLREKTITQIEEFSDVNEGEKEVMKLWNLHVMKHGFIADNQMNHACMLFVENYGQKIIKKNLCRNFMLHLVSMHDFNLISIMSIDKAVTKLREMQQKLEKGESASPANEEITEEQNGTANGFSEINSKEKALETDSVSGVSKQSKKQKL
T1 sequence (Q09028 whole entry partner): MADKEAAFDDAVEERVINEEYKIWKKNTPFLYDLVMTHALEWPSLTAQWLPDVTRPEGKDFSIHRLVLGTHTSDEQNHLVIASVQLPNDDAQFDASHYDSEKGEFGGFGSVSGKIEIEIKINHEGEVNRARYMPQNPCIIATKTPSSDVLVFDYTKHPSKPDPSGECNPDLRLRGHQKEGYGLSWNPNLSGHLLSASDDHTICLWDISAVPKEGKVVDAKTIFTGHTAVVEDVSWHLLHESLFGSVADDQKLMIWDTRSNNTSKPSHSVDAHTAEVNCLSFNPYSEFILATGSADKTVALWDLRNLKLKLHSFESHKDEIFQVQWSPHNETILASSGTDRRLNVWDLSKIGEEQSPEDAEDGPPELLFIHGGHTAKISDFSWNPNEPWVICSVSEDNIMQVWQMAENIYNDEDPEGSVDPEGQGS
T1 sequence (Q6ZN18 whole entry partner): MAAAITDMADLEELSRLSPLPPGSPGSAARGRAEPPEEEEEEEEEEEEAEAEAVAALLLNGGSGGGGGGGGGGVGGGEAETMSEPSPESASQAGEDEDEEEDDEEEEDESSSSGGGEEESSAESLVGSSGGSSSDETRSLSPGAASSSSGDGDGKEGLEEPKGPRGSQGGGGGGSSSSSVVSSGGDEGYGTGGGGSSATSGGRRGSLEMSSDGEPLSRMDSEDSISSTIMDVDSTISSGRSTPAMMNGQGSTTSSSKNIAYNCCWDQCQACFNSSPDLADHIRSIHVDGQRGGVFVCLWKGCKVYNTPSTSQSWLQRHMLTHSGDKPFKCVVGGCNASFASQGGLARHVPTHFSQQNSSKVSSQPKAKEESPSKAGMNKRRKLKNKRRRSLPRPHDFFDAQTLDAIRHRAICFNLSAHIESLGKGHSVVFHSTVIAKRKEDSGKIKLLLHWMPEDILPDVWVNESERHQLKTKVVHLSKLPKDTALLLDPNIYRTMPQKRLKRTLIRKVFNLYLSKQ

Structure (SMILES) | IC50 (PRC2 containing wt EZH2 [1]) [nM] | GI50 (Karpas-422 cell lines) [nM] | Papp at 2.5 h, 2 μM [2] [×10⁻⁶ cm/s] | efflux ratio at 2.5 h, 2 μM [2] | residence time (PRC2 containing wt EZH2 [3]) [min] | EC50 (H3K27me3 in Hela cells) [nM]
CSc1cc(C)[nH]c(=O)c1CNC(=O)c1cc(Cl)c2c(c1C)OC(C)(C1CCC(N3CC(F)(F)C3)CC1)O2 (single isomer, unassigned) [Example 7-Enantiomer 2] | 0.12 | 12 | 12 | 0.71 | 1980 | 
CSc1nc(C)[nH]c(=O)c1CNC(=O)c1cc(Cl)c2c(c1C)O[C@@](C)([C@H]1CC[C@H](N(C)C)CC1)O2 [Example 5] | 0.054 | 22 | 1.1 | 3.6 |  | 3.6
